Experimental findings from patent US6169181A, “Compounds useful to treat retroviral infections” (Pharmacia & Upjohn Company, priority 1998, dated 2001) are described below.

“And” between values parts separate entries of the source, which are not always exact repeats. Equal entries are not always repeated.

The first assay deals with HIV-1 protease (Human immunodeficiency virus type 1 group M subtype B, UniProt P04585). Put plainly: biochemical. The conditions noted are these: Table I; read-out: HIV Protease FITC Assay Ki. As to the method:
The HIV protease screening assay is based on fluorescently labeled substrate which can be resolved from nonlabeled cleavage product using special beads coated with streptavidin. The substrate is biotinylated at the amino terminal arginine and fluorescently labeled with fluorescein isothiocynate (FITC) at the carboxyl terminal lysine. […] Substrate ([…] of 0.2 μM), sample (10 μl of desired concentraion), and enzyme (10 μl of 0.1 μM) are added to a 96 well pandex plate. The assay is run in 0.1 M sodium acetate buffer at pH 5.5 in the presence of 1.0 M sodium chloride and 0.05% NP-40 with incubated in the dark for one hour at room temperature. Strepavidin coated polystyrene beads {40 μl of 0.1% (w/v)} are added and the plate is incubated in the dark for an additional half hour. The labeled cleavage product is separated from the unreacted substrate via filtration and is read on the Idexx screen machine. The data are analyzed by appropriate computer algorithms to ascertain percent inhibition values.
Determination of Ki values utilizes the same materials and equipment employed for percent inhibition studies. Two-fold serial dilutions are made for a given inhibitor from 2, 3 or 4 starting concentrations with a total of 24, 36 or 48 individual inhibitor concentrations. These dilutions are performed utilizing the BioMek robotics system. The assay consists of 10 μL of 40 nM HIV-1 protease, 10 μL of the various inhibitor concentrations, and 20 μL of 200 μM substrate (40 μL total). The reaction is allowed to proceed for 90 min at room temperature, terminated with 40 μL of avidin beads and processed (supra vide). An inhibitor with a known K; is run in parallel to verify the validity of the assay. The data is processed utilizing a computer program employing a nonlinear least square analysis of the data to generate the Ki values.
Broadly, the Ki is the dissociation constant of the complex between target and ligand, obtained from inhibition or displacement. Turning to `CCC(C1=C(O)CC(CCC2CC2)(CCC2CC2)OC1=O)c1cccc(NS(=O)(=O)c2cn(C)cn2)c1` (centres unmarked) [Example 246, N-[3-(1-[6,6-Bis-(2-cyclopropyl-ethyl)-5,6-dihydro-4-hydroxy-2-oxo-2H-pyran-3-yl]propyl)phenyl]-1-methyl-1H-imidazole-4-sulfonamide], the Ki amounted to 1.7 nM. In the case of `CCC(C1=C(O)CC(CCC2CC2)(CCC2CC2)OC1=O)c1cccc(NS(=O)(=O)c2ccc(C#N)cn2)c1` (centres unmarked) [Example 247, N-[3-(1-[6,6-Bis-(2-cyclopropyl-ethyl)-5,6-dihydro-4-hydroxy-2-oxo-2H-pyran-3-yl]propyl)phenyl]-5-cyano-2-pyridinesulfonamide], the Ki was found to be 1.2 nM.

Regarding `CCC(C1=C(O)CC(CC)(c2cccc(NS(=O)(=O)c3cn(C)cn3)c2)OC1=O)c1cccc(NS(=O)(=O)c2cn(C)cn2)c1` (centres unmarked) [Example 248, N-(3-[1-(6-Ethyl-5,6-dihydro-4-hydroxy-6-[3-([(1-methyl-1H-imidazol-4-yl)sulfonyl]amino)phenyl]-2-2H-pyran-3-yl)propyl]phenyl)-1-methyl-1H-imidazole-4-sulfonamide], the Ki came to 4.7 nM. Still for that read-out and setting: to `CCCC1(CCc2ccc(F)cc2)CC(O)=C(C(CC)c2cccc(NS(=O)(=O)c3ccc(C#N)cn3)c2)C(=O)O1` (centres unmarked) [Example 255, N-[3-{1-(4-Hydroxy-5,6-dihydro-2-oxo-6-(2-(4-fluorophenyl)ethyl)-6-propyl-2H-pyran-3-yl)propyl}phenyl]-5-cyanopyridine-2-sulfonamide] belongs 1.6 nM. As to `Cn1cnc(S(=O)(=O)Nc2cccc(C(C3=C(O)CC(CCc4ccc(F)cc4)(CCc4ccc(F)cc4)OC3=O)C(C)(C)C)c2)c1` (centres unmarked) [Example 256, N-[3-{1-(4-Hydroxy-5,6-dihydro-2-oxo-6,6-bis(2-(4-fluorophenyl)ethyl)-2H-pyran-3-yl)-2,2-dimethylpropyl}phenyl]-1-methyl-1H-imidazole-4-sulfonamide], the Ki came to 8.3 nM. The same measure, in the same setting: to `CC(C)(C)C(C1=C(O)CC(CCc2ccc(F)cc2)(CCc2ccc(F)cc2)OC1=O)c1cccc(NS(=O)(=O)c2ccc(C#N)cn2)c1` (centres unmarked) [Example 257, N-[3-{1-(4-Hydroxy-5,6-dihydro-2-oxo-6,6-bis(2-(4-fluorophenyl)ethyl)-2H-pyran-3-yl)-2,2-dimethylpropyl}phenyl]-5-cyanopyridine-2-sulfonamide] belongs 9 nM; to `CCC(C1=C(O)CC(CCc2ccc(F)cc2)(CCc2ccc(F)cc2)OC1=O)c1cccc(NS(=O)(=O)c2cn(C)cn2)c1` (centres unmarked) [Example 258, N-[3-{1-(4-Hydroxy-5,6-dihydro-2-oxo-6,6-bis(2-(4-fluorophenyl)ethyl)-2H-pyran-3-yl)propyl}phenyl]-1-methyl-1H-imidazole-4-sulfonamide], 4.3 nM.

Staying with this assay, now noted: read-out: HIV Protease FITC Assay Ki.
Turning to `Cn1cnc(S(=O)(=O)Nc2cccc(C(c3c(O)cc(C(CC4CC4)CC4CC4)oc3=O)C3CC3)c2)c1` (centres unmarked) [98 First Compound], the Ki is 0.74 nM and 0.8 nM. Still for that read-out and setting: to `Cn1cnc(S(=O)(=O)Nc2cccc(C(c3c(O)cc(C(CC4CC4)CC4CC4)oc3=O)C3CC3)c2)c1` (centres unmarked) [98 Second Compound] belongs 0.84 nM and 0.8 nM; to `CCC(C1=C(O)CC(CC)(c2cccc(NS(=O)(=O)c3ccc(C#N)cn3)c2)OC1=O)c1cccc(NS(=O)(=O)c2ccc(C#N)cn2)c1` (centres unmarked) [Example 249, 5-Cyano-N-(3-[1-(6-[3-([(5-cyano-2-pyridinyl)sulfonyl]amino)phenyl]-6-ethyl-5,6-dihydro-4-hydroxy-2-oxo-2H-pyran-3-yl)propyl]phenyl)-2-pyridinesulfonamide], 0.75 nM; to `CCCC1(CCc2ccc(F)cc2)CC(O)=C(C(CC)c2cccc(NS(=O)(=O)c3cn(C)cn3)c2)C(=O)O1` (centres unmarked) [Example 254, N-[3-{1-(4-Hydroxy-5,6-dihydro-2-oxo-6-(2-(4-fluorophenyl)ethyl)-6-propyl-2H-pyran-3-yl)propyl}phenyl]-1-methyl-1H-imidazole-4-sulfonamide], 3 nM.
